{
  "source": "paper PMC12162873",
  "about": "“Modulating phosphatase DUSP22 with BML-260 ameliorates skeletal muscle wasting via Akt independent JNK-FOXO3a repression” (EMBO Molecular Medicine, 2025)",
  "key": {"GST-tagged-DUSP22": {"target": "T1, GST-tagged-DUSP22 (Homo sapiens, UniProt Q9NRW4)", "T1 construct": "purchased Sigma-Aldrich SRP5021", "T1 sequence (Q9NRW4 1-184)": "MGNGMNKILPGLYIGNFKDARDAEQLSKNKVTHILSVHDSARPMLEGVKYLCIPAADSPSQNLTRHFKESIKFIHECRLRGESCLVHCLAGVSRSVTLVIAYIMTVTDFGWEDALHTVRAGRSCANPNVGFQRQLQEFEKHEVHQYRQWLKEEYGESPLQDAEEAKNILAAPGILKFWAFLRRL", "experiment": "DUSP22 phosphatase activity assay (EnzChek kit, DiFMUP substrate)", "type": "biochemical", "settings": "45 min at room temperature, read-out: IC50, inhibition of DUSP22 activity", "description": "The phosphatase activity of purified DUSP22 was measured using the EnzChek® Phosphatase Assay Kit (E12020, ThermoFisher, MA, USA) following the manufacturer’s instructions. In brief, for the assay a 200 µM 6,8-difluoro-4-methylumbelliferyl phosphate (DiFMUP) working solution was prepared. 50 µL DiFMUP solution was added to each well of a black-walled microplate, followed by a 50 µL sample containing GST-tagged-DUSP22 (SRP5021, Sigma-Aldrich, MO, USA) or 1X reaction buffer, to give a total reaction volume of 100 µL per well. BML-260 and 1X reaction buffer in a 50 µL volume were then added to each well. The microplate was incubated at room temperature for 45 min in the dark and fluorescence was measured at excitation 360 nm and emission 455 nm (SpectraMAX Gemini XS, Molecular Devices, CA, USA).\nA) Phosphatase activity assay for DUSP22 and inhibition by BML-260. […] (n=4) B) CB-Dock2 molecular docking analysis of BML-260 binding to the active site of DUSP22, DUSP22 with an active site mutation (at C88S), and DUSP15, which is a DUSP member with the highest homology with DUSP22 (as assessed by sequence alignment).\nBML-260 binding. BML-260 bound DUSP15 at the interface of the A and B chain, distinct from the predicted active site at position 85. n represents technical replicates analyzed by Stu-dent’s t test. […]"}, "C57BL/6 mice": {"test_system": "C57BL/6 mice", "experiment": "Hind limb immobilization model, BML-260 treatment", "type": "in vivo, mouse", "description": "Western blotting was carried out using the previously published protocol (Lee et al, [2020]). The NIH imaging software Image J 64 was used for densitometry analysis of the gel bands. The primary and secondary antibodies used in this study are shown in the reagent and tools table. Chemiluminescence was used to detect the secondary antibody.\nTo immobilize the hind limbs, 14-week-old male C57BL/6 mice were anesthetized with isoflurane and both hind limbs were fixed with plastic EP-tubes (Axygen, MCT-175-C). To prevent the tubes from slipping, the junction between the tubes and the hind limbs were wrapped with insulating tape. BML-260 was treated as follows: (1) vehicle alone (5% DMSO + 5% tween 80) and (2) 5 mg/kg BML-260 (n = 3 per group). The mice were monitored daily and sacrificed after 14 days.\nMice were anesthetized using ketamine (22 mg/kg; Yuhan, Republic of Korea) and xylazine (10 mg/kg; Bayer, Republic of Korea) in saline by IP injection. The quadriceps, gastrocnemius, soleus and TA muscles were then dissected and weighed. For histological analysis, the muscles were fixed by overnight incubation with 4% paraformaldehyde in PBS pH 7.4 at 4 °C. Paraffin sectioning and H&E staining were provided by the Animal Housing Facility, Gwangju Institute of Science and Technology, Republic of Korea (5 µm muscle sections using a Thermo Scientific HistoStar (Thermofisher). H&E staining was carried out with a kit (Merck, Germany)). For immunohistochemistry, TA muscle sections were permeabilized for 15 min (PBS with 0.5% Triton X-100), blocked for 1 h (5% BSA) and incubated with the primary antibody overnight at 4 °C (a list of primary and secondary antibodies used in this study are provided in Appendix Tables S4 and S5, respectively). After washing with PBS 3 times for 5 min, the sections were incubated with the secondary antibody at RT for 1 h. The nuclei were counterstained with DAPI in ProLong™ Gold Antifade Mountant (Invitrogen, P36935). Digital images were acquired with Leica DM 2500 (Leica Microsystems). Cross sectional area (CSA) and fiber size distribution was measured using the NIH imaging software Image J 64. To CSA and size distribution of different fiber types was calculated in 4 muscle section as follows: type 2 A: 30–40 fibers measured; type 2B: at least 100 fibers measured; type 2X: 30–40 fibers measured."}, "adipocytes": {"test_system": "adipocytes", "set-up": "method as in Feng et al, 2019", "settings": "ref Feng et al, 2019; cited from earlier work"}, "[1]": {"settings": "5 mg/kg BML-260, 14 days immobilization"}, "[2]": {"settings": "TA of immobilized mice (Fig EV4), Sham average = 1"}, "[3]": {"settings": "TA of immobilized mice (Fig EV4), Sham average = 1, individual animals"}},
  "note": "“And” between values parts separate entries of the source, which are not always exact repeats. Equal values may be shown once.",
  "data": [
    {"molecule": "O=C(O)c1ccc(N2C(=O)C(=Cc3ccccc3)SC2=S)cc1", "note": "(stereo in doubt) [BML-260]", "values": [
      {"measurement": "IC50", "setting": "GST-tagged-DUSP22", "value": 54, "unit": "µM"},
      {"measurement": "DUSP22 levels in TA and gastrocnemius muscles, western blot", "setting": "C57BL/6 mice; [1]", "value": "reduced DUSP22 levels"},
      {"measurement": "MYH4 (myosin heavy chain 2B) in TA muscle, western blot", "setting": "C57BL/6 mice; [1]", "value": "upregulation"},
      {"measurement": "atrogin-1 and MuRF-1 expression in immobilized TA, western blot", "setting": "C57BL/6 mice; [1]", "value": "downregulated"},
      {"measurement": "phosphorylation level of JNK in TA muscle, western blot", "setting": "C57BL/6 mice; [1]", "value": "reduction"},
      {"measurement": "DUSP22, western blot quantification, Average", "setting": "C57BL/6 mice; SHAM average = 1", "value": 0.5293},
      {"measurement": "DUSP22, western blot quantification", "setting": "C57BL/6 mice; SHAM average = 1, individual animals", "value": "0.9793 and 0.6244 and 0.3303 and 0.3563 and 0.317 and 0.5687"},
      {"measurement": "DUSP22, western blot quantification, Average", "setting": "C57BL/6 mice; TA muscle of immobilized mice (Fig EV5), Sham average = 1", "value": 1.168},
      {"measurement": "DUSP22, western blot quantification", "setting": "C57BL/6 mice; TA muscle of immobilized mice (Fig EV5), Sham average = 1, individual animals", "value": "1.324 and 0.9536 and 0.9932 and 1.399"},
      {"measurement": "p-jnk/jnk, western blot quantification, Average", "setting": "C57BL/6 mice; TA muscle of immobilized mice, Sham average = 1", "value": 0.4787},
      {"measurement": "p-jnk/jnk, western blot quantification", "setting": "C57BL/6 mice; TA muscle of immobilized mice, Sham average = 1, individual animals", "value": "0.7134 and 0.5569 and 0.2233 and 0.4213"},
      {"measurement": "DUSP22, western blot quantification, Average", "setting": "C57BL/6 mice; [2]", "value": 1.587},
      {"measurement": "MYH4, western blot quantification, Average", "setting": "C57BL/6 mice; [2]", "value": 0.928},
      {"measurement": "DUSP22, western blot quantification", "setting": "C57BL/6 mice; [3]", "value": "1.411 and 2.335 and 2.043 and 0.8602 and 1.621 and 1.251"},
      {"measurement": "MYH4, western blot quantification", "setting": "C57BL/6 mice; [3]", "value": "1.0151 and 0.5864 and 0.9197 and 0.796 and 1.189 and 1.062"},
      {"measurement": "expression of uncoupling protein-1 (UCP-1)", "setting": "adipocytes", "value": "upregulates"}
    ]}
  ]
}
